From ChEMBL document CHEMBL4622975 (J Med Chem, 2020)
Activity calls are given as the source filed them. The rule behind the calls is not given here.

Tests used:
[1] = molecular target: T1, Tyrosine-protein phosphatase non-receptor type 1 (Homo sapiens, UniProt P18031)
T1 sequence (P18031 whole entry): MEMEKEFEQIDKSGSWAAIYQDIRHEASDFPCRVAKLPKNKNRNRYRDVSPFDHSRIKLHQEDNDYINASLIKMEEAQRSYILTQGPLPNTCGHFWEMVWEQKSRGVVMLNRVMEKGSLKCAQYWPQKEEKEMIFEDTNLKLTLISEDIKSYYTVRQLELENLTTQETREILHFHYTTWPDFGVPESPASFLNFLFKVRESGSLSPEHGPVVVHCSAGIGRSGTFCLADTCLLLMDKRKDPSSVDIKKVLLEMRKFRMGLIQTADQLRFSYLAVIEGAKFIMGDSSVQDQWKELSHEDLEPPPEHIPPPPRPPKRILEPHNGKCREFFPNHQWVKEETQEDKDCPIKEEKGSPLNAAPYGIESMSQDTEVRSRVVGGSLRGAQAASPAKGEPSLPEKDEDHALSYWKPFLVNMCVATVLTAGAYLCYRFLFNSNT

[2] = molecular target: T2, Phosphotyrosine protein phosphatase (Mycobacterium tuberculosis) (UniProt A0A045ISB3)
T2 sequence (whole entry): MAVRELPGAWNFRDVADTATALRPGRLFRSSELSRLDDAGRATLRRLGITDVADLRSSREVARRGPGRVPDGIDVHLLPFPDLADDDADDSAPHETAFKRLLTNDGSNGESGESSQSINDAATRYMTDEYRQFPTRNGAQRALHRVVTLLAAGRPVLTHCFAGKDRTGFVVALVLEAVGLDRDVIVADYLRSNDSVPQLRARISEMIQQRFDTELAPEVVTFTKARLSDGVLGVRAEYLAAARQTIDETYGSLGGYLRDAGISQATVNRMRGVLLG
Description: Time-dependent inhibition of Mycobacterium tuberculosis PTPB expressed in Escherichia coli BL21 (DE3) using p-nitrophenyl phosphate as substrate in presence of Triton-X-100 by UV-vis spectrophotometric method

[3] = molecular target: T3, Phosphotyrosine protein phosphatase (Mycobacterium tuberculosis, UniProt A0A045ISB3)
T3 sequence (A0A045ISB3 whole entry): T2 sequence (whole entry)
Description: Inhibition of Mycobacterium tuberculosis PTPB expressed in Escherichia coli BL21 (DE3) using p-nitrophenyl phosphate as substrate measured after 30 mins by UV-vis spectrophotometric method

[4] = molecular target: Tyrosine-protein phosphatase non-receptor type 6 (Homo sapiens, UniProt P29350)
[5] = molecular target: T2, Phosphotyrosine protein phosphatase (Mycobacterium tuberculosis); remark: listed apart in the source
Description: Time-dependent inhibition of Mycobacterium tuberculosis PTPB expressed in Escherichia coli BL21 (DE3) using p-nitrophenyl phosphate as substrate in absence of Triton-X-100 by UV-vis spectrophotometric method

[6] = molecular target: T4, Tyrosine-protein phosphatase non-receptor type 11 (Homo sapiens, UniProt Q06124)
T4 sequence (Q06124 whole entry): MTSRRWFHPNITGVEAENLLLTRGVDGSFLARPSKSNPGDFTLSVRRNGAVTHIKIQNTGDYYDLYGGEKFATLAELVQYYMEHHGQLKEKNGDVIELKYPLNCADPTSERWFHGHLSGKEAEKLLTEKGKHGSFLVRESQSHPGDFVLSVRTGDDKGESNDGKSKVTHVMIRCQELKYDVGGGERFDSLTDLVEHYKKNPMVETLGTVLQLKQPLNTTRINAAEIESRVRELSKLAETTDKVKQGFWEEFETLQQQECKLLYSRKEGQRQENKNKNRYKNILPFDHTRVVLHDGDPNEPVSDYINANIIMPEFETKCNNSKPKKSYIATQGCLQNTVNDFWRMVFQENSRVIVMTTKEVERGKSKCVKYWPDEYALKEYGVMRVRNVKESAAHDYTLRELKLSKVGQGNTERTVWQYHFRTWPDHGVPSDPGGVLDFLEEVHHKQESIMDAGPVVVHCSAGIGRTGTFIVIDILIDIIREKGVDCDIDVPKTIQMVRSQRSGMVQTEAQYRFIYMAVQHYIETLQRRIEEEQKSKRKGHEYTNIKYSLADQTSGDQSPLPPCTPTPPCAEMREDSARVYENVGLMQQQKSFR

[7] = Drug uptake in mouse RAW264.7 cells at 20 uM measured after 2 hrs by LC-MS analysis; assay type: ADME, cell-based; conditions: raw264.7, 2 h
[8] = Stability in CD1 mouse pooled liver microsomes measured after 2 hrs in absence of NADPH by LC-MS/MS analysis; assay type: ADME, Microsome
[9] = molecular target: Receptor-type tyrosine-protein phosphatase epsilon (Homo sapiens, UniProt P23469)
MEF = test: Cytotoxicity against MEF at 25 uM measured after 72 hrs by MTT assay; assay type: cell-based; conditions: mouse

Chain of Tyrosine-protein phosphatase non-receptor type 6 (P29350 whole entry): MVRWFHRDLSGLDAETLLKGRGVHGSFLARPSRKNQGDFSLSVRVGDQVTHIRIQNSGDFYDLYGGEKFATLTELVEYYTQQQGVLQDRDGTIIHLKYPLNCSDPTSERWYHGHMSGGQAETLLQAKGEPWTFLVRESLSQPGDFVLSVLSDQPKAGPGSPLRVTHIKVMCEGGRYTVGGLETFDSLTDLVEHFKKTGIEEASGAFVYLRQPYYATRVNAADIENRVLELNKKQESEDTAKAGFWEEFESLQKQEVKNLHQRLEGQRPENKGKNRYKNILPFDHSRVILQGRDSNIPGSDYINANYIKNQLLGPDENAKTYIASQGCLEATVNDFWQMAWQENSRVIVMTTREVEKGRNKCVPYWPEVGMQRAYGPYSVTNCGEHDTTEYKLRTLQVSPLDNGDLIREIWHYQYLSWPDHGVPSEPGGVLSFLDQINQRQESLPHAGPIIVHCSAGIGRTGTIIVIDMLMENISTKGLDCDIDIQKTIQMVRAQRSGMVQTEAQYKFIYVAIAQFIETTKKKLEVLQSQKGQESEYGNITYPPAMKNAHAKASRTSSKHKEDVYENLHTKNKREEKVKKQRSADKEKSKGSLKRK
Chain of Receptor-type tyrosine-protein phosphatase epsilon (P23469 whole entry): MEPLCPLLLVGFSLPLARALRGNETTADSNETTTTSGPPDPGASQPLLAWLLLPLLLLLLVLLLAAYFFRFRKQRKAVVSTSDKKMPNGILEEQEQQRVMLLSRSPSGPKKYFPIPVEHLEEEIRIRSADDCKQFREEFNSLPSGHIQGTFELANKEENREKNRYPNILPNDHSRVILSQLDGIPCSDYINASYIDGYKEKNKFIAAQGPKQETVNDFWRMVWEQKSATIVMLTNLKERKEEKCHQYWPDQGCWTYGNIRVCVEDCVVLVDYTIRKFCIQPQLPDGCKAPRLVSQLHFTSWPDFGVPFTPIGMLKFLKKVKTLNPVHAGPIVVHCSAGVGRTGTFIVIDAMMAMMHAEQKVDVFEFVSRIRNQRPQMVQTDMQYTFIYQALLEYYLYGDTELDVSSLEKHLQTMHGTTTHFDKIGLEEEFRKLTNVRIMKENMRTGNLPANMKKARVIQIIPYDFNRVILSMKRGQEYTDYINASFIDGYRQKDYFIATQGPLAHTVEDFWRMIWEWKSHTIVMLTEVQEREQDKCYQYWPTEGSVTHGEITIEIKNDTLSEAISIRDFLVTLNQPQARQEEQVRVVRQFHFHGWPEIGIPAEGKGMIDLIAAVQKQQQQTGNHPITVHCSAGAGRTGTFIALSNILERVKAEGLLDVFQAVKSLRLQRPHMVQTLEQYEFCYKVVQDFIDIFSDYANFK

| SMILES | IC50 [1] | IC50 [3] | IC50 [4] | IC50 [6] | other results |
| --- | --- | --- | --- | --- | --- |
| O=C(O)C(=O)Nc1ccc(C#Cc2cc(C(F)(F)F)cc(C(F)(F)F)c2)cc1 | > 50 µM | 0.06 µM | > 50 µM | > 50 µM | TDI [2]: Active; TDI [5]: Active |
| O=C(O)C(=O)Nc1ccc(C#Cc2ccc(C(F)(F)F)cc2)cc1 | > 50 µM |  | > 50 µM | > 50 µM | Drug uptake [7]: Active; Stability [8]: Stable; IC50 [9]: > 30 µM |
| O=C(O)C(=O)Nc1cnc2ccccc2c1 |  | > 10 µM |  |  |  |
| O=C(O)C(=O)Nc1ccc(C#Cc2ccc3ccccc3c2)cc1 | > 50 µM |  | > 50 µM | > 50 µM |  |
| O=C(O)C(=O)Nc1ccc(C#Cc2ccc(C(F)(F)F)cc2F)cc1 | > 30 µM |  | > 30 µM | > 30 µM | Drug uptake [7]: Active; Stability [8]: Stable |
| O=C(O)C(=O)Nc1ccc(C#Cc2cccc(C(F)(F)F)c2)cc1 |  |  | > 50 µM | > 50 µM |  |
| O=C(O)C(=O)Nc1ccc(C#Cc2ccc(O)cc2)cc1 | > 50 µM |  | > 50 µM | > 50 µM |  |
| CC(C)(C)OC(=O)NCC#Cc1ccc(NC(=O)C(=O)O)cc1 | > 100 µM |  |  |  |  |
| COC(=O)c1ccc(C#Cc2ccc(NC(=O)C(=O)O)cc2)cc1O | > 50 µM |  | > 50 µM | > 50 µM |  |
| CC(C)(C)c1ccc(C#Cc2ccc(NC(=O)C(=O)O)cc2)cc1 | > 50 µM | 0.026 µM | > 50 µM | > 50 µM |  |
| COC(=O)c1cc(C#Cc2ccc(NC(=O)C(=O)O)cc2)ccc1O | > 50 µM | 0.025 µM | > 50 µM |  |  |
| O=C(O)C(=O)Nc1cccc(C#Cc2ccccc2)c1 | > 100 µM |  |  |  |  |
| O=C(O)C(=O)Nc1ccc(C#Cc2ccc(C(F)(F)F)cc2Cl)cc1 | > 30 µM |  | > 30 µM | > 30 µM | Drug uptake [7]: Active; Stability [8]: Stable; Activity (MEF): Non-Toxic |
| O=C(O)C(=O)Nc1ccc(C#Cc2ccccc2)cc1 | > 100 µM | 0.257 µM | > 100 µM | > 100 µM |  |
| O=C(O)C(=O)Nc1ccc(C#Cc2ccc(O)c(Br)c2)cc1 | > 50 µM |  | > 50 µM |  |  |
| O=C(O)C(=O)Nc1ccc(/C=C\c2ccc(C(F)(F)F)cc2)cc1 | > 30 µM | 0.684 µM |  | > 30 µM |  |

| SMILES | IC50 [1] | IC50 [3] | IC50 [4] | IC50 [6] | other results |
| --- | --- | --- | --- | --- | --- |
| O=C(O)C(=O)Nc1ccccc1 | > 100 µM |  |  | > 100 µM |  |
| COC(=O)c1cc(C#Cc2ccc(NC(=O)C(=O)O)cc2)c(N(C)C)cc1O | > 50 µM | 0.03 µM | > 50 µM | > 50 µM |  |
| NS(=O)(=O)c1ccc(C#Cc2ccc(NC(=O)C(=O)O)cc2)cc1 | > 50 µM |  |  | > 50 µM |  |
| COC(=O)c1cc(C#Cc2cccc(NC(=O)C(=O)O)c2)c(N(C)C)cc1O | > 50 µM |  | > 50 µM | > 50 µM |  |
| O=C(O)C(=O)Nc1ccc(/C=C\c2ccccc2)cc1 | > 30 µM | 0.77 µM |  | > 30 µM |  |
| CN(C)c1cc(O)c(C(=O)O)cc1C#Cc1cccc(NC(=O)C(=O)O)c1 |  | 0.16 µM |  |  |  |
| CC(C)(C)OC(=O)Nc1ccc(C#Cc2ccc(NC(=O)C(=O)O)cc2)cc1 | > 50 µM |  | > 50 µM | > 50 µM | Activity (MEF): Non-Toxic |
| O=C(O)C(=O)Nc1ccc(CCc2ccc(C(F)(F)F)cc2)cc1 | > 30 µM | 0.197 µM |  | > 30 µM |  |
| O=C(O)C(=O)Nc1ccc(C#Cc2ccc(C(F)(F)F)cc2C(F)(F)F)cc1 | > 30 µM |  | > 30 µM | > 30 µM |  |
| C#Cc1ccc(NC(=O)C(=O)O)cc1 | > 100 µM |  |  | > 100 µM |  |
| O=C(O)C(=O)Nc1ccc(CCc2ccccc2)cc1 | > 30 µM | 1.27 µM |  | > 30 µM |  |
| O=C(O)C(=O)Nc1ccc(C#Cc2ccc(OC(F)(F)F)cc2)cc1 | > 50 µM |  | > 50 µM | > 50 µM |  |
| N#Cc1ccc(C#Cc2ccc(NC(=O)C(=O)O)cc2)cc1 | > 50 µM |  | > 50 µM | > 50 µM |  |
| O=C(O)C(=O)Nc1ccc(C#Cc2ccc(C(F)(F)F)cc2Br)cc1 |  |  |  |  | Drug uptake [7]: Active; Stability [8]: Stable |
| CN(C)c1cc(O)c(C(=O)O)cc1C#Cc1ccc(NC(=O)C(=O)O)cc1 | > 100 µM | 0.09 µM |  |  |  |
